Laboratory results taken from patent US8329720B1 (Pisgah Laboratories, Inc., priority 2007, dated 2012).

Columns and labels:
[1] = Intrinsic dissolution profile as a function of pH; format: physicochemical; details: result in words; for pH dissolution profile: 0.1N HCl (pH 1), pH 4.5 acetate buffer, pH 6.8 phosphate buffer, water, 37° C.; for dissolution behavior at the low pH condition: 0.1N HCl
Method: (§1) The opioid salts of the present invention were tested to determine their dissolution profile as a function of pH, and as a function of ethanol concentration in acidic media (dose dumping). To perform these experiments the buffered dissolution media and acidic ethanol solutions were prepared as identified herein, “Preparation of Solutions”. The test procedure was derived from the procedures cited in the United States Pharmacopeia and National Formulary (USP), numbers <1087> and <711>. The dose dumping procedure was adopted from the United States Food and Drug Administration's guidance regarding the dose dumping of oxymorphone. The sampling interval and regimen was defined and each sample analyzed by HPLC. Results from the HPLC analyses were plotted as a function of time and dissolution condition (FIG. 37 through FIG. 97 inclusive, and FIGS. 102-105, 109, 110, 114 and 115). This procedure was used to obtain the pH and dose dumping dissolution profiles disclosed herein. […] All activities within the procedure were conducted and executed for each of the compounds reported herein. Unless otherwise stated HPLC measurements were done and reported at ambient temperature and dissolution testing was done nominally at 37° C.
The following procedures were derived from USP <1087> Intrinsic Dissolution and USP <711> Dissolution methods, as well as manufacturer recommended procedures for use of the International Crystals Laboratories intrinsic dissolution disks.
(§2) The material which is to be subjected to dissolution is weighed using an analytical balance. 45.00-55 mg of the analyte was weighed and transferred to an International Crystals Laboratories fixed/static disk 316 stainless die with a 0.8 cm diameter die cavity. A hardened steel punch was then inserted into the cavity and the material was compressed at 2000 psi for 4-5 minutes using a bench top hydraulic press. The punch is then removed to expose the 0.5 cm^2 pellet surface. A Viton gasket is then placed around the threaded shoulder of the die and a polypropylene cap is threaded onto the die. This process can be repeated to generate as many pellets as is necessary for the experiment.
A Distek Dissolution System equipped with a model number TCS0200C temperature control system was filled with water and set to a temperature of 37.3° C. The vessel cavities were then equipped with four 1 L flat-bottomed Distek dissolution vessels. Four vessels were then filled with 500 mL of the following media: 0.1N HCl, pH 4.5 acetate buffer, pH 6.8 phosphate buffer, and USP grade water. The solutions were allowed to warm in the water bath for approximately 1 hour, but not exceeding 3 hours, or until the temperature of the media matched that of the water bath. Paddles were then mounted to the Distek stirring apparatus above the four dissolution vessels such that the distance between the paddle and the die face is 1 inch. The paddle speed is then set to 50 RPM.
The pellet prepared as described above was submerged into a vessel prepared as described above, with the pellet surface facing up (metal die up, polypropylene cap facing down). Forceps are used to aid this process so that the pellet apparatus can be gently placed into the bottom of the vessel. A timer is used to track the sampling intervals, and is started when the pellet is dropped into the solution. The lid to the dissolution apparatus is then lowered and the stirring apparatus is activated. Some planning is required in spacing out pellet drops such that each vessel can be sampled at the desired time intervals. Sampling is done by aspirating 10 mL of the solution using a Popper® Micro-Mate® Interchangeable Hypodermic Syringe equipped with a Vortex Pharma Group 10 micron cannula porous filter. This filter should be replaced after each use. Although sampling intervals can change from experiment to experiment, the following has been heavily utilized for the experiments described herein.

[2] = Intrinsic dissolution dose dumping profile (ethanol concentration in acidic media, FDA protocol); format: physicochemical; details: for dose dumping dissolution profile: 0.1N HCl with 0, 5, 20 and 40% ethanol; for dose dumping profile at the 5% ethanol condition: 5% ethanol in 0.1N HCl; for dose dumping profile at the 20% ethanol condition: 20% ethanol in 0.1N HCl; for active released: in approximately sixty minutes; for release: 40% EtOH in 0.1N HCl
Description: A general overview of this concern may be found at http://www.fda.gov/ohrms/dockets/AC/05/slides/2005-4187S2—02_Hussain.ppt. This Oct. 26, 2005 overview presentation by the deputy director OPS/CDER of the FDA and entitled “Preventing Alcohol Induced Dose Dumping is a Desired Product Design Feature” describes the dose-dumping phenomenon. Dose dumping can be employed by those with the deliberate intention of abusing the drug, but may also occur during the normal/moderate consumption of alcohol while taking a prescribed medication. Simply, dose dumping is that condition “in which the complete dose may be more rapidly released from the dosage form than intended, creating a potential safety risk”. Clearly, with the opioid narcotics, dose dumping for the intention of experiencing the “high” or rush, may have severe, even deadly consequences. The presentation further categorizes the results from dose dumping testing as either vulnerable, rugged or uncertain. If the dissolution profile in the presence of alcohol accelerates the release of the active ingredient, the product is classified as vulnerable and would likely not receive FDA market approval. In contrast, a rugged product design is achieved when the dissolution profile of the drug substance, again in the presence of alcohol, is identical to or is available to a lesser extent as compared to the control. The testing regimen recommended within the FDA's draft guidance includes determining the dissolution profile in 0.1N HCl solutions wherein the sample is tested in the medium and at increasing levels of ethanol, specifically at 5, 20 and 40% alcohol.
as §1
The following procedures were derived from the FDA Draft Guidance for Oxymorphone Hydrochloride (recommended in November, 2007).
as §2, with “85.00-95.00” for “45.00-55”
A Distek Dissolution System equipped with a model number TCS0200C temperature control system, was filled with water and set to a temperature of 37.3° C. The vessel cavities were then equipped with four 1 L flat-bottomed Distek dissolution vessels.

[3] = Modified dose dumping protocol: ethanol solutions in the absence of the 0.1N HCl media

COc1ccc2c3c1O[C@H]1C(=O)CC[C@H]4[C@@H](C2)N(C)CC[C@]314.O=C(O)C(O)C(O)C(=O)O [hydrocodone bitartrate, reference compound]
pH dissolution profile [1]: immediate release (IR) characteristics | dose dumping dissolution profile ([2]; result in words): exhibit dose dumping propensities

CN(C)CCCN1c2ccccc2CCc2ccccc21.CN(C)CCCN1c2ccccc2CCc2ccccc21.O=C(O)c1cc2ccccc2c(Cc2c(O)c(C(=O)O)cc3ccccc23)c1O [imipramine pamoate, reference compound]
dose dumping dissolution profile ([2]; result in words): exhibited dose dumping properties

COc1ccc2c3c1O[C@H]1C(=O)CC[C@@]4(O)[C@@H](C2)N(C)CC[C@]314.Cl [oxycodone hydrochloride, reference compound]
pH dissolution profile [1]: immediate release (IR) characteristics | dose dumping dissolution profile ([2]; result in words): apparent solution equilibrium was obtained within minutes | dissolution in the control condition ([2]; 0.1 N HCl without EtOH, result in words): complete dissolution within minutes | enhancement of the release profile by the acidic media ([2]; at each ethanol level, comparing FIGS. 58 and 59): more than 20 % (absolute) | amount of oxycodone extracted / opiate immediately released ([3]; 40% EtOH (about 80 proof), no 0.1N HCl): about 50%

Amorphous Hydrocodone Pamoate Acetone Solvate [solvated amorphous form]
dose dumping dissolution profile ([2]; result in words): somewhat erratic compared with Form II

Amorphous Hydrocodone Pamoate Form I [amorphous Form I]
dose dumping dissolution profile ([2]; result in words): somewhat erratic compared with Form II

Amorphous Hydrocodone Pamoate Form II
dissolution behavior at the low pH condition [1]: ranks between that observed for Form I and the acetone solvated form | dose dumping profile at the 5% ethanol condition ([2]; result in words): slow (and essentially identical) dissolution response | dose dumping profile at the 20% ethanol condition ([2]; result in words): slow (and essentially identical) dissolution response

Hydrocodone Xinafoate
pH dissolution profile [1]: extended release at pH 1, and independent release as the pH increases

Oxycodone Pamoate [amorphous oxycodone pamoate]
time to complete (full) release of the opiate ([2]; 0.1N HCl media, no EtOH): about one | dose dumping dissolution profile ([2]; result in words): no dose dumping benefit | dissolution profile as a function of ethanol concentration ([3]; 0.1N HCl with 0% EtOH, and 5, 20, 40% EtOH without acid, result in words): slow linear process | opiate released ([3]; 40% EtOH, over about one hour): approximately 60% | pamoate released (apparent pamoate equilibrium solubility) ([3]; 40% ethanol condition, FIG. 62): about 85% | time to apparent pamoate equilibrium solubility ([3]; 40% ethanol condition, FIG. 62): approximately 45 minutes

Oxycodone Pamoate [polymorphic form of oxycodone pamoate]
pH dissolution profile [1]: essentially identical pH dissolution profile as the amorphous form | active released ([2]; 0.1N HCl containing 5% EtOH): about 70% | active released ([2]; 0.1N HCl): about 70% | equilibrium solubility (release) ([2]; 20% EtOH in 0.1N HCl, reached in about 30 minutes): ~10% | release ([2]; after 3 hours): approximately 40% | release ([2]; after about 80 minutes): ~10%

Oxycodone Xinafoate
pH dissolution profile [1]: poor dissolution profile at pH 1 with a gradual release as the pH increases | dose dumping dissolution profile ([2]; result in words): dose dumps immediately at the higher EtOH concentrations

Polymorphic Hydrocodone Pamoate Form II
dissolution behavior at the low pH condition [1]: slower release than Form I | dose dumping profile at the 5% ethanol condition ([2]; result in words): essentially identical to the 0.1N HCl condition | dose dumping profile at the 20% ethanol condition ([2]; result in words): did not accelerate dose dumping | dose dumping profile at the 40% ethanol condition ([2]; 40% ethanol in 0.1N HCl, result in words): did not promote dose dumping
